Reference: patent publication US8354398B2, “Substituted isoxazole compounds” (Bristol-Myers Squibb Company, priority 2009, dated 2013)
pEC50, pIC50: −log10 of the molar value.

What was measured:
S1P3 = S1P3 (Homo sapiens, UniProt Q99500); assay: Method A: Receptor [35S] GTPγS Binding Assay, membranes from EDG3-Ga15-bla HEK293T cells; assay type: biochemical; design: expressed in transfected cells; host or cells: EDG3-Ga15-bla HEK293T cells; settings: EDG3-Ga15-bla HEK293T cell membranes
How it was run: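 Membranes ([…]) incubated 45 min at room temperature with 3-fold compound dilutions and 0.2 nM final [35S]GTPγS in HEPES pH 7.5 buffer containing 10 μM GDP, MgCl2, EGTA, DTT, BSA and saponin. Bound label collected by filtration and scintillation counting; EC50 taken at 50% of each compound's Ymax.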

[1] = tested on: adjuvant induced arthritis (paw swelling); assay: Rat Adjuvant Induced Arthritis Assay (AA); assay type: in vivo, Lewis rats; settings: for Paw Swelling (mL) on Day 20, Mean: male Lewis rats, vehicle mean 1.53
Procedure: Male Lewis rats (150-175 g; Harlan, n=8 treatment group) were immunized at the base of the tail with […] of 10 mg/ml freshly ground Mycobacterium butyricum (Difco Laboratories) in incomplete Freund's adjuvant (sigma) Animals were dosed once daily with the test article (as a solution or suspension in the vehicle) or vehicle alone (polyethylene glycol 300, “PEG300”) starting from the day of immunization. The volumes of their hind paws were measured in a water displacement plethysmometer (Ugo Basile, Italy). The baseline paw measurements were taken before onset of the disease (between day 7 to day 10). The paw measurements were then taken three times a week until the end of the study on day 20. All procedures involving animals were reviewed and approved by the Institutional Animal Care Use Committee.

S1P1 [2] = molecular target: T1, S1P1 (Homo sapiens, UniProt P21453); assay: S1P1 Binding Assay (33P-S1P ligand competition, membranes from CHO cells); design: expressed in transfected cells; host or cells: CHO cells; settings: membranes of CHO cells expressing human S1P1; 0.03 nM 33P-S1P; 60 min room temperature
How it was run: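 Membranes from CHO cells expressing human S1P1 (2 μg/well) were incubated with 0.03 nM ^33P-S1P and test compound for 60 min at room temperature. Bound radioactivity was collected on GF/B filters and counted. IC50 is the concentration reducing specific radioligand binding by 50%.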

S1P1 [3] = molecular target: T1, S1P1; assay: Method B: Receptor [35S] GTPγS SPA Binding Assay, membranes from S1P1 transfected CHO cells; assay type: biochemical; design: expressed in transfected cells; host or cells: S1P1/CHO cells
How it was run: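 CHO-cell membranes (2 μg protein) with test compound, 5 μM GDP, saponin and WGA-PVT SPA beads, pH 7.4; reaction started with 0.2 nM [35S]-GTPγS, 90 min at room temperature. Bound counts expressed as % of 1 μM S1P response, EC50 from four-parameter logistic fit; no curves where Ymax below 50%.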

T1 sequence (P21453 whole entry): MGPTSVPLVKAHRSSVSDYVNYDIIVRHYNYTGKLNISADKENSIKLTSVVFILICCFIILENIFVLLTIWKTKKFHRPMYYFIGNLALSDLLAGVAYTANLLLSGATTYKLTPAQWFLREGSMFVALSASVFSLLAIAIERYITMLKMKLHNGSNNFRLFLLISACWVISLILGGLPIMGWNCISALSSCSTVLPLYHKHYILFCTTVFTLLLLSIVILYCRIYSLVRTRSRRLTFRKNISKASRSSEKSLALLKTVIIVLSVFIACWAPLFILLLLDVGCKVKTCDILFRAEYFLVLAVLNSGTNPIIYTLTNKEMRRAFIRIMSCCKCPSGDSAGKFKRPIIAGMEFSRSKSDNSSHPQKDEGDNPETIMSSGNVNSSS
S1P3, sequence (Q99500 whole entry): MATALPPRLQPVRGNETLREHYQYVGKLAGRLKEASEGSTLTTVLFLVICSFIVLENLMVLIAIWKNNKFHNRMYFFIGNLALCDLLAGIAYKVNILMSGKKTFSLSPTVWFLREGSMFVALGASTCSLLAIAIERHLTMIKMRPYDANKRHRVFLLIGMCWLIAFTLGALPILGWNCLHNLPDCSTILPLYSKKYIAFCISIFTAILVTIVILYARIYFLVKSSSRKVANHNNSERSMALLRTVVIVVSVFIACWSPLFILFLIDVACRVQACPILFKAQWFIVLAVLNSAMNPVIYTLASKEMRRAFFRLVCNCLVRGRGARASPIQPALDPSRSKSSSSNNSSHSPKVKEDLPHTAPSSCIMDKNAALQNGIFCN

Question: With O=C(O)C1CN(Cc2ccc(-c3noc(-c4onc(-c5ccccc5)c4C(F)(F)F)n3)cc2)C1 [Example 1, 1-(4-(5-(3-Phenyl-4-(trifluoromethyl)isoxazol-5-yl)-1,2,4-oxadiazol-3-yl)benzyl)azetidine-3-carboxylic acid] as the compound, how does the pEC50 (S1P3) read?
Answer: 6.03

Question: What about the “disease progression as measured by paw swelling” value ([1]; Lewis rat, prophylactic oral dosing) of the same compound?
Answer: inhibits disease progression

Question: And the “Paw Swelling (mL) on Day 20, Mean” value ([1]; 0.03 mg/kg once daily from day of immunization)?
Answer: 1.39 mL

Question: And the “Paw Swelling (mL) on Day 20, Mean” value ([1]; 0.1 mg/kg once daily from day of immunization)?
Answer: 0.55 mL

Question: What about the “Paw Swelling (mL) on Day 20, Mean” value ([1]; 0.5 mg/kg once daily from day of immunization) of the same compound?
Answer: 0.23 mL

Question: What about the “Paw Swelling (mL) on Day 20, Mean” value ([1]; 3.0 mg/kg once daily from day of immunization) of the same compound?
Answer: 0.29 mL

Question: And the pIC50 (S1P1 [2])?
Answer: 10.04

Question: What about the pEC50 (S1P1 [3]; Method B SPA, S1P1 transfected CHO cell membranes, NC = a satisfactory dose response curve was not obtained) of the same compound?
Answer: 10.32

Question: What about the “GTPγS S1P3/S1P1 (Method B)” value (S1P1 [3]; ratio of GTPγS S1P3 EC50 to GTPγS S1P1 EC50, Method B) of the same compound?
Answer: 11,000
